Measurements reported in publication PMC10485906, “Development of a Dihydroquinoline–Pyrazoline GluN2C/2D-Selective Negative Allosteric Modulator of the N-Methyl-D-aspartate Receptor” (ACS Chemical Neuroscience, 2023).
Read-outs that look alike come from different tables or passages of the source.

How the values were obtained:
[1] = target: CYP3A4 (Homo sapiens, UniProt P08684); experiment: biochemical
[2] = target: T1, GluN1/GluN2A (Rattus norvegicus, UniProt P35439+Q00959); experiment: Two-electrode voltage-clamp recordings, Xenopus laevis oocytes, GluN1/GluN2A; type: cell-based; settings: 100 μM glutamate, 30 μM glycine; for remaining activity at 30 µM: 30 μM test compound, mean ± SEM, read-out: I 30 μM / I control GluN2A; for IC50: read-out: IC50 GluN2A [95% CI]
T1 construct: expressed in transfected cells; host or cells: Xenopus laevis oocytes (cRNA injection)
T1 sequence (Q00959 23-1464, other chains not shown): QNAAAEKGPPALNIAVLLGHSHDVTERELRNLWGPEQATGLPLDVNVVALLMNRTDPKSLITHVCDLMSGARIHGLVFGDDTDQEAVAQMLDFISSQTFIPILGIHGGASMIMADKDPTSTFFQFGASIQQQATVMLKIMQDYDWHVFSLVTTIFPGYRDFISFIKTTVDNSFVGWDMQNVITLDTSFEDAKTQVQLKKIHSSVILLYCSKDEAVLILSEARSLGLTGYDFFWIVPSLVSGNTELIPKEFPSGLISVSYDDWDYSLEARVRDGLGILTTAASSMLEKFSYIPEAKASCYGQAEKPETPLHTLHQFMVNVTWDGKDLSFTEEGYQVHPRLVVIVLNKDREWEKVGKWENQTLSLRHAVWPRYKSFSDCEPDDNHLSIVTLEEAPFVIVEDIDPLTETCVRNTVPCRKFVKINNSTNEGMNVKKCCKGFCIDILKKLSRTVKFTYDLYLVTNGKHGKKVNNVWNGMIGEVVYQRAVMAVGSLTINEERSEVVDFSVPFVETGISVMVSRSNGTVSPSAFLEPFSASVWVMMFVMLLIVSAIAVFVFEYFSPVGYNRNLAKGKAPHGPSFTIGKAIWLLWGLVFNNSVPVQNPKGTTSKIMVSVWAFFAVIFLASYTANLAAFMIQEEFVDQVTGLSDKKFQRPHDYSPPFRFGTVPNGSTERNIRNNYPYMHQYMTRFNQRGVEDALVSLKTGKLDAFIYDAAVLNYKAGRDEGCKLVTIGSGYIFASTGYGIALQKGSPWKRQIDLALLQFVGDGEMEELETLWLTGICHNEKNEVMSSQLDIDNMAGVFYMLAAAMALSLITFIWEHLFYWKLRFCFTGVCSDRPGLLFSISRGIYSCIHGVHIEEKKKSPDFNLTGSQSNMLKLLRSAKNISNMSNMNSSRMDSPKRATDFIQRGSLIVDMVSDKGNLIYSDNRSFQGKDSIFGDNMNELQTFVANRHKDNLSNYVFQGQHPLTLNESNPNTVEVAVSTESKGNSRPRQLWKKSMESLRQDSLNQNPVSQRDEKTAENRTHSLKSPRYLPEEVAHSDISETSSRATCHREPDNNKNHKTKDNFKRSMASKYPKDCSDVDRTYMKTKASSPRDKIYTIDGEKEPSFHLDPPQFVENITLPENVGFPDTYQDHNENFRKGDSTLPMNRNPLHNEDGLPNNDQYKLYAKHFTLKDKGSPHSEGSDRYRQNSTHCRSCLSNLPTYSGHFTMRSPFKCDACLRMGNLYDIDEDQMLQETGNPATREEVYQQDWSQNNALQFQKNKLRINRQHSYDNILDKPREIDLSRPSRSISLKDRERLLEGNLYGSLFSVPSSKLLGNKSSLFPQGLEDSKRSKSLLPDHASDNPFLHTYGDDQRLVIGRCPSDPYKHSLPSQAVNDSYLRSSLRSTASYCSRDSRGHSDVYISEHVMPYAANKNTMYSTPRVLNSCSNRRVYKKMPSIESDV
Procedure: (§1) All target compounds were evaluated for NMDAR antagonism using two-electrode voltage-clamp recordings from Xenopus laevis oocytes coexpressing recombinant GluN1 and GluN2A-D subunits (Table 1).[32],[42],[33] All analogues were assessed as either a racemic (2b, 2e–2r) or diastereomeric (2d) mixture to simplify purification and streamline in vitro analysis. […] Moreover, as illustrated by the significant loss of NMDAR activity observed with nitrile 2e, the DQP allosteric site necessitated an H-bond donor/acceptor relationship at the carboxylate position. […] The loss of NMDAR activity observed with the trifluoro analogue 2j (Table S1) reinforced the necessity for an H-bond donor/acceptor relationship to maintain allosteric binding and established that fluorine substitution alone is ineffective. […] A single methyl substitution of the amide in compound 2q improved selectivity against GluN2A and had similar potency as 2a, whereas dual methyl substitution reduced potency (2r). We expect that this is likely due to the ability of the […] of the amide to accept hydrogen bonds while the amide can readily donate a proton.
(§2) Unfertilized Xenopus laevis oocytes were obtained from Ecocyte (Austin, TX), or ovaries were purchased from Xenopus 1 (Dexter, MI) and oocytes prepared as previously described.[42],[47] Two-electrode voltage-clamp recordings were performed on oocytes expressing recombinant rat GluN1/GluN2A, GluN1/GluN2B, GluN1/GluN2C, or GluN1/GluN2D. cDNAs for rat GluN1-1a (referred to as GluN1; NCBI Reference Sequence NM_017010.2), GluN2A (NM_012573.4), GluN2B (NM_012574.1), GluN2C (NM_012575.3), and GluN2D (NM_022797.2) were provided by Dr. S. Heinemann from the Salk Institute, Dr. S. Nakanishi from Kyoto University, and Dr. P. Seeburg from the University of Heidelberg. Oocyte isolation, cRNA synthesis, and cRNA injections were performed as previously described.[32],[33],[47] Briefly, Xenopus laevis oocytes were injected with 5–10 ng of cRNA in RNase-free water with the GluN1:GluN2 ratio ranging from 1:1 to 1:5. Oocytes were incubated at 15–19 °C in Barth’s solution consisting of (in mM) 88 NaCl, 1 KCl, 2.4 NaHCO3, 10 HEPES, 0.82 MgSO4, 0.33 Ca(NO3)2, and 0.41 CaCl2 supplemented with 100 μg/mL gentamycin, 40 μg/mL streptomycin, and 50 μg/mL penicillin. Recordings were performed 2–4 days after injection with extracellular recording solution containing (in mM) 90 NaCl, 1 KCl, 10 HEPES, 0.5 BaCl2, and 0.01 EDTA at pH 7.4 adjusted with NaOH. To prevent a gradual increase in current response over the course of the experiment, some oocytes expressing GluN1/GluN2A were injected with 20–50 nL of 2–50 mM K-BAPTA. Concentration–response curves for test compounds were generated by applying a maximally effective concentration of glutamate (100 μM) and glycine (30 μM), followed by glutamate and glycine with variable concentrations of test compounds up to 30 μM. The test compounds were prepared as 20 mM stock solutions in DMSO and diluted to the final concentration in recording solution. The DMSO content was 0.05–0.5% (v/v). […] Methods for off-target analysis are given in the Supporting Information.
(§3) Confidence intervals were determined for the log(IC50). The time course of relaxation during inhibitor application or deactivation following rapid removal of NMDA or glutamate was fitted by the equation [drawing 5] 2

[3] = target: T2, GluN1/GluN2B (Rattus norvegicus, UniProt P35439+Q00960); experiment: Two-electrode voltage-clamp recordings, Xenopus laevis oocytes, GluN1/GluN2B; type: cell-based; settings: 100 μM glutamate, 30 μM glycine; for remaining activity at 30 µM: 30 μM test compound, mean ± SEM, read-out: I 30 μM / I control GluN2B; for IC50: read-out: IC50 GluN2B [95% CI]
T2 construct: GluN2B (NM_012574.1), GluN2C (NM_012575.3), and GluN2D (NM_022797.2) were provided by; expressed in transfected cells; host or cells: Xenopus laevis oocytes (cRNA injection)
Procedure: as §1, §2, §3

[4] = Brain homogenate tissue binding and stability (RED device); type: in vitro ADME, mouse; settings: for remaining at 4 h, 5 µM / fraction unbound at 4 h, 5 µM: C57BL/6, mouse, brain homogenate (4 times diluted); for remaining at 4 h, 5 µM: pH 7.4, starting concentration 5 μM; for recovery at 4 h, 5 μM: C57BL/6, pH 7.4, mouse brain tissue binding; for Average 2i Concentration, Brain_St_0Hr_Mice / Average 2i Concentration, Brain_St_4Hr_Mice: brain homogenate stability sample; for Average 2i Concentration, Brain_St_0Hr_Mice: 0 h; for Average 2i Concentration, Buffer_Mice: buffer chamber after 4 h dialysis; for Average 2i Concentration, Brain_Mice: brain homogenate chamber after 4 h dialysis
Procedure: Carbamazepine (Apin Chemicals) served as a positive control for brain tissue binding. Test compounds and the positive control were initially dissolved in DMSO to make 1 mM stock solutions. […] A rapid equilibrium dialysis (RED) device (Thermo Scientific) containing a dialysis membrane with a molecular weight cutoff of 8000 Da was used to assess tissue binding and metabolic stability. […] The test compounds and positive control (200 μL of 5 μM solution) were added to the red chamber of the dialysis insert, while the white chamber was filled with dialysis buffer (350 μL). The RED device was then sealed with an adhesive film and incubated at 37 °C with shaking (300 rpm) for 4 h. For the initial time point (t = 0 min), 50 μL aliquots of test compounds and the positive control were added to 96-deep well plates (0.7 mL per well) and quenched with 400 μL of MeCN. Following dialysis, another 50 μL aliquot of the tested samples was removed from each well (brain homogenate and buffer) and diluted with an equal volume of the opposite matrix to nullify any matrix effects. […] The supernatant (100 μL) was subsequently transferred to 96-deep well plates for LC-MS/MS analysis. Prodrug metabolism and 2i concentrations were determined by fit-for-purpose LC-MS/MS methods on a nine-point calibration curve ranging from 0.12 to 7.5 μM.

[5] = target: T3, GluN1/GluN2A (Rattus norvegicus, UniProt Q00959); experiment: Two-electrode voltage-clamp recordings, Xenopus laevis oocytes, GluN1/GluN2A; type: cell-based; settings: mean ± SEM; for I / I control GluN2A: tested at 10 μM (footnote b)
T3 construct: expressed in transfected cells; host or cells: Xenopus laevis oocytes (cRNA injection)
T3 sequence (Q00959 23-1464, other chains not shown): as above
Procedure: as §1, §2, §3

[6] = target: T4, GluN1/GluN2B (Rattus norvegicus, UniProt Q00960); experiment: Two-electrode voltage-clamp recordings, Xenopus laevis oocytes, GluN1/GluN2B; type: cell-based; settings: mean ± SEM; for I / I control GluN2B: tested at 10 μM (footnote b)
T4 construct: GluN2B (NM_012574.1), GluN2C (NM_012575.3), and GluN2D (NM_022797.2) were provided by; expressed in transfected cells; host or cells: Xenopus laevis oocytes (cRNA injection)
T4 sequence (Q00960 27-1482, other chains not shown): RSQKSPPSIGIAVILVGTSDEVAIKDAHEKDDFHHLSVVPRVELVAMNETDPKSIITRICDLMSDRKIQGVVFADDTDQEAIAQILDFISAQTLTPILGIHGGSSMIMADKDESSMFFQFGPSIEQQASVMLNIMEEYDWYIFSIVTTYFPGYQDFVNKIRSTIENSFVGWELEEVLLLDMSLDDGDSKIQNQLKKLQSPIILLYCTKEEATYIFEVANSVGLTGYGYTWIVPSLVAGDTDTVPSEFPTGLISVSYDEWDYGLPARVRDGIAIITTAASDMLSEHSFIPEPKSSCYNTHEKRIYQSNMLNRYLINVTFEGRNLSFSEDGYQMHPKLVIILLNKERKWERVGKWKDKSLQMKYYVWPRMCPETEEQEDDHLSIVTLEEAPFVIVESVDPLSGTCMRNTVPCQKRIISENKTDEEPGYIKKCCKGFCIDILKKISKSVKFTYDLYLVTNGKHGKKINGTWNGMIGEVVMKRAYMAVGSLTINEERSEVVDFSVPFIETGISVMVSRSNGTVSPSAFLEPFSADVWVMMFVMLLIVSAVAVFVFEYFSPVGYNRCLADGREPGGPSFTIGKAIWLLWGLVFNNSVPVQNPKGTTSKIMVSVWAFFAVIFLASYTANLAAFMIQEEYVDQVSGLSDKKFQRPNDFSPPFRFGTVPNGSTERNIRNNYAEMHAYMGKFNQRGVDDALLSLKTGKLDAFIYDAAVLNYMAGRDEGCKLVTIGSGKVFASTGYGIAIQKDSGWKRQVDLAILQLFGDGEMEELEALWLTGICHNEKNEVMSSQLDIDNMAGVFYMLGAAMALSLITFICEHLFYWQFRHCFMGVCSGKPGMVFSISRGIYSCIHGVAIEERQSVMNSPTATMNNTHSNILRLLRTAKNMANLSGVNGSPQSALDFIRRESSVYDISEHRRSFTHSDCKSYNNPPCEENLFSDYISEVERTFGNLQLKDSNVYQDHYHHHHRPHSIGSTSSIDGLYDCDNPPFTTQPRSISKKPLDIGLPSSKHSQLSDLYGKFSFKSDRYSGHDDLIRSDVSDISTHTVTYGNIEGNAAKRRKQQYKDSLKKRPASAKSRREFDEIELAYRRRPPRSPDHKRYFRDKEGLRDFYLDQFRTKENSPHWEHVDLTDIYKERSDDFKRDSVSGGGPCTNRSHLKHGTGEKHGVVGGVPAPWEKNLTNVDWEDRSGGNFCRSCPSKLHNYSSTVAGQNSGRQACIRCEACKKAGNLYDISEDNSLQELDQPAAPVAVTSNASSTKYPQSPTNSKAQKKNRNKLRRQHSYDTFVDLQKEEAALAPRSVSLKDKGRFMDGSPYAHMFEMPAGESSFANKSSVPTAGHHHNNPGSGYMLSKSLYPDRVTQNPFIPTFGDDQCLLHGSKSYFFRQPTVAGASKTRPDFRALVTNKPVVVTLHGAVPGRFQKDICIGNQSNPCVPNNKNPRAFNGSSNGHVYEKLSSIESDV
Procedure: as §1, §2, §3

[7] = 100 μM glutamate, 30 μM glycine
[8] = 1 µM compound, 100 µM glutamate, 30 µM glycine
[9] = tested at 3 μM, 100 μM glutamate, 30 μM glycine

Sequence of CYP3A4 (P08684 whole entry): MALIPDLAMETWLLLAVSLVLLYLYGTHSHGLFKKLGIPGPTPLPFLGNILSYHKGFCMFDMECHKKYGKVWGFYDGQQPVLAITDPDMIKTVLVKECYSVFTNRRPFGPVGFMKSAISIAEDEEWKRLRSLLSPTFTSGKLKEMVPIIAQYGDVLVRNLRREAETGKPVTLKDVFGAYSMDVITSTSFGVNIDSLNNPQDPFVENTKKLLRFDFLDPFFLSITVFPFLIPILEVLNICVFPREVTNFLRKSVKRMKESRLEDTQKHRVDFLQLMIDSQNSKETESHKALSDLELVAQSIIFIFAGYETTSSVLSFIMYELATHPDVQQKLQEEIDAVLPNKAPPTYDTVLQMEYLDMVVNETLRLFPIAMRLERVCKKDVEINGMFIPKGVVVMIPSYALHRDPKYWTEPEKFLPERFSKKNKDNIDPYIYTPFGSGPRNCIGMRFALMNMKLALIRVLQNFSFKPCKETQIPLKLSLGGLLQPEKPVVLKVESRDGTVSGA

Row | IC50 [1] | remaining activity at 30 µM [2] | remaining activity at 30 µM [3] | remaining at 4 h, 5 µM ([4]; 4 h) | recovery at 4 h, 5 μM ([4]; RED, 4 h) | Average 2i Concentration, Brain_St_0Hr_Mice [4] | Average 2i Concentration, Buffer_Mice [4] | I / I control GluN2A [5, 7] | I / I control GluN2B [6, 7] | IC50 [2] | IC50 [3] | Average 2i Concentration, Brain_Mice [4] | Average 2i Concentration, Brain_St_4Hr_Mice ([4]; 4 h) | SMILES | also measured
1 | 6.7 ± 1.2 µM | 100 ± 1.3% | 92 ± 2.1% | 25% | 29% | BLQ | BLQ | – | – | – | – | – | – | O=C(CC(F)(F)C(=O)N1N=C(c2c(-c3ccc(Cl)cc3)c3ccccc3[nH]c2=O)CC1c1ccc(Cl)cc1)OCC1CC1 (centres unmarked) [2n] | –
2 | 12 ± 0.04 µM | – | – | 53% | 44% | BLQ | BLQ | 97 ± 2.2% | 94 ± 1.0% | – | – | – | – | CC(C)(C)COC(=O)CC(F)(F)C(=O)N1N=C(c2c(-c3ccc(Cl)cc3)c3ccccc3[nH]c2=O)CC1c1ccc(Cl)cc1 (centres unmarked) [2o] | –
3 | > 20 µM | 105 ± 0.72% | 103 ± 2.1% | 31% | 33% | – | BLQ | – | – | – | – | – | – | O=C(CC(F)(F)C(=O)N1N=C(c2c(-c3ccc(Cl)cc3)c3ccccc3[nH]c2=O)CC1c1ccc(Cl)cc1)OCc1ccccc1 (centres unmarked) [2p] | –
4 | 7.7 ± 1.7 µM | – | – | 33% | 30% | BLQ | BLQ | 83 ± 3.9 ^b (2,12) % | 81 ± 8.7 ^b (3, 10) % | 37 µM | 20 µM | BLQ | BLQ | CNC(=O)CC(F)(F)C(=O)N1N=C(c2c(-c3ccc(Cl)cc3)c3ccccc3[nH]c2=O)CC1c1ccc(Cl)cc1 (centres unmarked) [2q] | –
5 | > 20 µM | – | – | 93% | 90% | BLQ | BLQ | 70 ± 3.9 ^b (3,13) % | 78 ± 4.2 ^b (4,22) % | – | – | BLQ | BLQ | CN(C)C(=O)CC(F)(F)C(=O)N1N=C(c2c(-c3ccc(Cl)cc3)c3ccccc3[nH]c2=O)CC1c1ccc(Cl)cc1 (centres unmarked) [2r] | fraction unbound at 4 h, 5 µM ([4]; pH 7.4, mouse brain tissue binding (free fraction in brain), read-out: % Unbound): < 0.001; fraction unbound at 4 h, 5 µM ([4]; pH 7.4, mouse brain tissue binding, RED, 4 h, read-out: % Bound Mean ± SD (converted)): < 0.001; fraction unbound at 4 h, 5 µM ([4]; pH 7.4, mouse brain tissue binding, RED, 4 h, read-out: % Bound R1 (converted)): < 0.001; fraction unbound at 4 h, 5 µM ([4]; pH 7.4, mouse brain tissue binding, RED, 4 h, read-out: % Bound R2 (converted)): < 0.001
6 | – | – | – | – | – | – | – | – | – | 4.7 µM | 16 µM | – | – | O=C(O)CC(F)(F)C(=O)N1N=C(c2c(-c3ccc(Cl)cc3)c3ccccc3[nH]c2=O)C[C@H]1c1ccc(Cl)cc1 [(S)-(−)-2i] | % control GluN1/GluN2A [5, 8]: 74 ± 2.1%; I3 μM/Icontrol GluN2A [5, 9]: 67 ± 2.0 (3, 14) %; % control GluN1/GluN2B [6, 8]: 90 ± 3.5%; I3 μM/Icontrol GluN2B [6, 9]: 89 ± 6.2 (3, 18) %
